{
  "source": "patent US20250122197A1",
  "about": "“PROCESS FOR […] ISOLATING ATROPISOMERS OF 7-CHLORO-6-FLUORO-1-(2-ISOPROPYL-4-METHYLPYRIDIN-3-YL)PYRIDO[2,3-D]PYRIMIDINE-2,4(1H,3H)-DIONE” (AMGEN INC., priority 2020, published 2025)",
  "origin": "cited, not measured here",
  "key": {"KRAS p.G12C tumors": {"system": "KRAS p.G12C tumors", "details": "mice bearing KRAS p.G12C tumors, Canon et al. Nature 2019"}, "[1]": {"system": "phosphorylation of extracellular signal-regulated kinase (ERK)", "details": "preclinical studies, Canon et al. Nature 2019"}},
  "data": [
    {"smiles": "C=CC(=O)N1CCN(c2nc(=O)n(-c3c(C)ccnc3C(C)C)c3nc(-c4c(O)cccc4F)c(F)cc23)[C@@H](C)C1", "note": "[AMG 510]", "values": [
      {"measurement": "Tumor regression", "setting": "KRAS p.G12C tumors", "result": "durable complete tumor regression"},
      {"measurement": "Inhibition of ERK phosphorylation", "setting": "[1]", "result": "inhibited nearly all detectable phosphorylation"}
    ]}
  ]
}
